For one experiment, the target named is T1, μ opioid receptor (Homo sapiens, UniProt P35372).
T1 construct: expressed in transfected cells; host or cells: CHO cells (membranes)
The experiment is described as follows: Competition binding assay on membranes of CHO cells expressing μ opioid receptor, [3H]-labeled ligand. Particulars: for inhibition at 10 µM: Table 1-1, 10 μM concentration of compound, mean ± SD of three measurements, read-out: μOR Binding rate (%); for inhibition at 1 µM: 0.5 h, read-out: μOR Combination rate (%). As to the method: (§1) CHO cells expressing p opioid receptor, δ opioid receptor and κ opioid receptor were cultured in 10 cm^2 culture dishes (F-12 medium+10% neonatal bovine serum) for several days, and the culture fluid was aspirated after the cells had grown to the bottom of the dishes; 3 ml of PBS/EDTA solution (0.1M NaCl, 0.01M NaH2PO4, 0.04% EDTA) was added to digest the cells for 3-5 min. Add ice-cold homogenate (50 mM HEPES PH 7.4, 3 mM MgCl, 1 mM EGTA) to the centrifuge tube, transfer the solution and sediment to a homogenizer and homogenize; then transfer the homogenate to a centrifuge tube and centrifuge at 18000 rpm. Centrifuge for 15 min, two times; the obtained precipitate was homogenized with appropriate amount of 50 mM Tris-HCl, pH 7.4 buffer and divided into centrifuge tubes and stored at −70° C. in the refrigerator until use.
(§2) The total binding tube was spiked with 20-30 μg of the expressed membrane receptor protein and […] ligand (1-2 nM), the corresponding non-specific binding tube was spiked with 1 μM of the corresponding ligand, and the sample tubes were spiked with various screened opioid ligands in a final volume of […], incubated at 30° C. for 30 min, and the reaction was terminated in ice water. […] The samples were filtered under negative pressure through GF/C (whatman) glass fiber filter paper on a Millipore sample collector. The reaction was rinsed three times with 4 ml of 50 mMV Tris-HCl (pH 7.4), the filter paper was dried and placed in 0.5 ml Eppendorf tubes with 0.5 ml of lipophilic scintillation solution, the radioactivity was measured by PERKIN ELMER PRI-CARB 2910 liquid scintillation counter and the inhibition rate was calculated. Inhibition rate (or binding rate)=(total binding rate dpm−sample tube dpm)/(total binding tube dpm−non-specific binding tube dpm)×100%
(§3) IC50 was calculated using Prism 5.0 software. the Ki value was calculated as follows, Ki=IC50/(1+[IL]/Kd), [lL] is the concentration of the added labeled ligand and Kd is the equilibrium dissociation parameter of the labeled ligand.
(§4) CHO cells expressing p opioid receptor, δ opioid receptor and κ opioid receptor were cultured in a 10 cm^2 culture dish (F-12 medium+10% neonatal bovine serum) for several days, and the culture fluid was aspirated after the cells grew to the bottom of the dish. 3 mL PBS/EDTA solution (0.1 M NaCl, 0.01 M NaH2PO4, 0.04% EDTA) was added to digest the cells for 3˜5 min, blew with a pipette to completely dislodge the cells. The cells were collected in a 40 mL centrifuge tube, centrifuged at 5000 rpm for 5 min. The supernatant was removed and the ice-cold homogenate (50 mM HEPES pH 7.4, 3 mM MgCl2, 1 mM EGTA) was added to the centrifuge tube. The solution and the precipitate were transferred to a homogenizer. Then the homogenate was transferred to a centrifuge tube and centrifuged at 18000 rpm for 15 min. The precipitate was centrifuged twice at 18000 rpm for 15 min. The obtained precipitate was homogenized by adding appropriate amount of 50 mM Tris-HCl, pH 7.4 buffer and divided into centrifuge tubes and stored at −70° C. in the refrigerator until use.
(§5) The total binding tube was added with 20-30 μg of expressed membrane receptor protein and [3H]-labeled ligand (1-2 nM). The corresponding non-specific binding tube was added with 1 μM of the corresponding ligand, and the sample tubes were added with various screened opioid ligands in a final volume of 100 μL. All of them were incubated for 30 min at 30° C., and the reaction was terminated in ice water. The samples were filtered under negative pressure through GF/C (Whatman) glass fiber filter paper on a Millipore sample collector. The reaction was rinsed three times with 4 mL of 50 mM Tris-HCl (pH 7.4), the filter paper was dried and placed in 0.5 mL Eppendorf tubes with 0.5 mL of lipophilic scintillation solution. […]

Another experiment deals with T2, δ opioid receptor (Homo sapiens, UniProt P41143).
T2 construct: expressed in transfected cells; host or cells: CHO cells (membranes)
In words: Competition binding assay on membranes of CHO cells expressing δ opioid receptor, [3H]-labeled ligand. The note with it: for inhibition at 10 µM / inhibition at 1 µM: 0.5 h; for inhibition at 10 µM: Table 1-1, 10 μM concentration of compound, read-out: δOR Binding rate (%); for Ki: read-out: δOR Ki; for inhibition at 1 µM: read-out: δOR Combination rate (%). As to the method:
as §1, §2, §3, §4, §5

A further experiment addresses T3, κ opioid receptor (Homo sapiens, UniProt P41145).
T3 construct: expressed in transfected cells; host or cells: CHO cells (membranes)
In words: Competition binding assay on membranes of CHO cells expressing κ opioid receptor, [3H]-labeled ligand. The note with it: for inhibition at 10 µM / inhibition at 1 µM: 0.5 h; for inhibition at 10 µM: Table 1-1, 10 μM concentration of compound, read-out: κOR Binding rate (%); for Ki: read-out: κOR Ki; for inhibition at 1 µM: read-out: κOR Combination rate (%). The procedure: as §1, §2, §3, §4, §5

The subject of a further experiment is Female mice. The experiment is described as follows: In vivo hot plate method analgesia test. The note with it: intraperitoneal; for Maximum percentage effective analgesic (% MPE): Table 1-2, hot plate 55° C., 5 mg/kg dose; for Maximum percentage effective analgesia (% MPE): Table 5-2, hot plate 55° C. The procedure:
Female mice weighing about 20 g were placed on a hot plate apparatus preheated to 55° C., and the latency of the hindfoot response of the mice was used as the pain threshold indicator. Animals were screened before the experiment, and those with response latency less than 5 s or more than 30 s were excluded. To prevent foot scalding, the maximum observation time was set at 60 s. The basal pain threshold was the average of two measurements, with a 5-min interval between measurements. pain thresholds were measured at 15 m, 30 m, 60 m and 120 m after intraperitoneal injection in each group of mice. The percentage effective analgesia (% MPE) was calculated according to the following formula: percentage effective analgesia (% MPE) (post-dose latency−pre-dose latency)/(60−pre-dose latency)×100%. ED50 values were calculated based on the effective percentage of analgesia using the software Graphpad prism 5.0 software.
(§6) Female mice weighing about 20 g were placed on a hot plate apparatus preheated to 55° C., and the latency of the hindfoot response of the mice was used as the pain threshold indicator. Animals were selected before the experiment, and those with response latency less than 5 s or greater than 30 s were excluded. To prevent foot scalding, the maximum observation time was set at 60 s. The basal pain threshold was the average of two measurements, with a 5-min interval between measurements. pain thresholds were measured at 15 min, 30 min, 60 min and 120 min after intraperitoneal administration in each group of mice. The percentage of analgesic effectiveness (% MPE) was calculated according to the following equation. Percentage of effective analgesia (% MPE)_(Pre-dose incubation period−Incubation period after drug administration)/(60-Pre-dose incubation period)×100%. ED50 values were calculated based on the effective percentage of analgesia using GraphPad prism 5.0 software.
as §6, with “were screened” for “were selected”, “measurements. Pain” for “measurements. pain”, “following formula.” for “following equation. Percentage of effective analgesia (% MPE)_(Pre-dose incubation period−Incubation period after drug administration)/(60-Pre-dose incubation period)×100%. ED50 values were calculated based on the effective percentage of analgesia using GraphPad prism 5.0 software.”
ED50 values were calculated based on the effective percentage of analgesia using Graphpad Prism 5.0.
Female mice weighing about 20 g were placed on a hot plate apparatus preheated to 55° C., and the latency of the hindfoot response of the mice was used as the pain threshold indicator. Animals were screened before the experiment, and those with response latency less than 5 s or more than 30 s were excluded. To prevent foot scalding, the maximum observation time was set at 60 s. The basal pain threshold was the average of two measurements, with a 5-min interval between measurements. pain thresholds were measured at 15 min, 30 min, 60 min and 120 min after intraperitoneal administration in each group of mice. The analgesic effective percentage (% MPE) was calculated according to the following formula: analgesic effective percentage (% MPE)=(latency after drug administration−latency before drug administration)/(60−latency before drug administration)×100%. ED50 values were calculated based on the effective percentage of analgesia using the software Graphpad prism 5.0.
Female mice weighing about 20 g were placed on a hot plate apparatus preheated to 55° C. and the latency of the hindfoot response was used as an indicator of pain threshold. […]

The mark [1] stands for this setting: Table 5-1, 1 μM concentration of compound.

Read-outs that look alike come from different tables or passages of the source. A value given as a limit tells only on which side of the number the result lay.

Turning to `COc1cccc(C2(O)CCC(CS(=O)(=O)c3ccccc3)CC2CN(C)C)c1.Cl` (stereo not drawn) [2-((Dimethylamino)methyl)-1-(3-methoxyphenyl)-4-((phenylsulfonyl)methyl)cyclohexane-1-ol hydrochloride], the inhibition at 10 µM worked out at 86.9 ± 2% at μ opioid receptor, 9.3% at δ opioid receptor and 34.6 ± 5.1% on κ opioid receptor. The “Maximum percentage effective analgesic (% MPE)” value with Female mice is listed as 22.4%.

For the compound `COc1cccc(C2(O)CCC(N(C)S(=O)(=O)c3cccc(Cl)c3)CC2CN(C)C)c1.Cl` (stereo not drawn) [3-Chloro-N-(3-((dimethylamino)methyl)-4-hydroxy-4-(methoxyphenyl)cyclohexyl)-N-methylbenzenesulfonamide hydrochloride], the results for the inhibition at 10 µM at μ opioid receptor, on δ opioid receptor and on κ opioid receptor were 90 ± 2%, 13.8 ± 3% and 66.6 ± 4.8%, respectively. The “Maximum percentage effective analgesic (% MPE)” value in the experiment with Female mice came to 20.2%.

In the case of `COc1cccc([C@@]2(O)CCN(S(=O)(=O)Cc3ccccc3)C[C@@H]2CN(C)C)c1.Cl` [(3S,4R)-1-(Benzylsulfonyl)-3-((dimethylamino)methyl)-4-(3-methoxyphenyl)piperidin-4-ol hydrochloride], the inhibition at 0.1 µM was 24.5 ± 0.64% at μ opioid receptor (Table 4-1 footnote a, 0.1 μM, read-out: μOR Inhibition rate); 7.3 ± 4.5% at δ opioid receptor (Table 4-1 footnote a, 0.1 μM, read-out: δOR Inhibition rate); 20.75 ± 0.13% on κ opioid receptor (Table 4-1 footnote a, 0.1 μM, read-out: κOR Inhibition rate). In addition, the “% MPE” value in the experiment with Female mice (Table 4-2, hot plate 55° C., 10 mg/kg dose) was found to be 13.4%.

With `COc1cccc(C2(O)CCN(C(=O)Cc3cc(C(F)(F)F)cc(C(F)(F)F)c3)CC2CN(C)C)c1.Cl` (stereo not drawn) [FWBE1, 2-(3,5-Bis(trifluoromethyl)phenyl)-1-(3-((dimethylamino)methyl)-4-hydroxy-4-(3-methoxyphenyl)piperidin-1-yl)ethyl-1-one hydrochloride], the Ki was 0.0253 ± 0.0049 µM at μ opioid receptor (Table 5-1, read-out: μOR Ki); 4.39 ± 0.351 µM on δ opioid receptor (Table 5-1); 4.42 ± 0.181 µM at κ opioid receptor (Table 5-1). Also, the “Maximum percentage effective analgesia (% MPE)” value with Female mice (10 mg/kg dose) was 17.8%.

On to `COc1cccc(C2(O)CCN(C(=O)Cc3ccsc3)CC2CN(C)C)c1.Cl` (stereo not drawn) [FWBE2, 1-(3-((Dimethylamino)methyl)-4-hydroxy-4-(3-methoxyphenyl)piperidin-1-yl)-2-(thiophen-3-yl)ethyl-1-one hydrochloride], for which the figures for the inhibition at 1 µM on μ opioid receptor, on δ opioid receptor and at κ opioid receptor were 40.6 ± 0.9%, 14.7 ± 0.9% and 20.8 ± 1.9%, respectively. Moreover, the “Maximum percentage effective analgesia (% MPE)” value in the experiment on Female mice (10 mg/kg dose) turned out to be 42%.

On to `COc1cccc(C2(O)CCN(C(=O)Cc3ccccc3)CC2CN(C)C)c1.Cl` (stereo not drawn) [FWBE3, 1-(3-((Dimethylamino)methyl)-4-hydroxy-4-(3-methoxyphenyl)piperidin-1-yl)-2-phenylethyl-1-one hydrochloride], for which the results for the inhibition at 1 µM on μ opioid receptor, on δ opioid receptor and at κ opioid receptor were 41.1 ± 2.3%, 11.7 ± 0.9% and 23.4 ± 5.7%, respectively. Further, the “Maximum percentage effective analgesia (% MPE)” value in the experiment on Female mice (10 mg/kg dose) was determined as 63.5%.

For `COc1cccc(C2(O)CCN(C(=O)Cc3cccc(C(F)(F)F)c3)CC2CN(C)C)c1.Cl` (stereo not drawn) [FWBE4, 1-(3-((Dimethylamino)methyl)-4-hydroxy-4-(3-methoxyphenyl)piperidin-1-yl)-2-(3-(trifluoromethyl)phenyl)ethyl-1-one hydrochloride], on μ opioid receptor (setting [1]), the inhibition at 1 µM is 37.8 ± 2.9%. The Ki at δ opioid receptor (Table 5-1) was more than 10 µM; on κ opioid receptor (Table 5-1), 3.03 ± 0.15 µM. In addition, the “Maximum percentage effective analgesia (% MPE)” value in the experiment with Female mice (10 mg/kg dose) turned out to be 69%.

As to `COc1cccc(C2(O)CCN(C(=O)c3cc(F)c(F)cc3F)CC2CN(C)C)c1.Cl` (stereo not drawn) [FWBE5, (3-((Dimethylamino)methyl)-4-hydroxy-4-(3-methoxyphenyl)piperidin-1-yl)(2,4,5-trifluorophenyl)methanone hydrochloride], the inhibition at 1 µM at μ opioid receptor (setting [1]) worked out at 13 ± 0.2%; at δ opioid receptor (setting [1]) it was 7 ± 6.3%; on κ opioid receptor (setting [1]) it was 23 ± 5.9%. Besides, the “Maximum percentage effective analgesia (% MPE)” value in the experiment with Female mice (10 mg/kg dose) stood at 3%.

For `COc1cccc(C2(O)CCN(C(=O)Cc3cccc(OC(F)(F)F)c3)CC2CN(C)C)c1.Cl` (stereo not drawn) [FWBE6, 1-(3-((Dimethylamino)methyl)-4-hydroxy-4-(3-methoxyphenyl)piperidin-1-yl)-2-(3-(trifluoromethoxy)phenyl)ethyl-1-one hydrochloride], the inhibition at 1 µM at μ opioid receptor (setting [1]) is 21.5 ± 0.1%; on δ opioid receptor (setting [1]), 13.2 ± 1%; on κ opioid receptor (setting [1]), 13.5 ± 0.6%. Further, the “Maximum percentage effective analgesia (% MPE)” value with Female mice (10 mg/kg dose) is 47%.

The record behind these values is US12624004B2 (Fudan University, priority 2019, dated 2026).
